Columns and labels:
[1] = test system: Jurkat cells; test: Cell cycle analysis (Guava Cell Cycle Reagent); format: cell-based; conditions: IC50 concentration, 24 h, flow histogram
Protocol: Our findings are consistent with the literature data that many ICs predominantly affect the G2 and S phases, reducing them.
The incubation time of ionic liquids with cells was 24 h. […] It is listed because the picture prints the label with values. / The fit parameters printed in each histogram (RMS, Mean G1, Mean G2, G2/G1, CV G1, CV G2) were left out as statistics of the cell-cycle model.

[2] = test system: mitochondria of Jurkat tumor cells; test: Mitochondrial damage (MitoSense Red staining); format: cell-based; conditions: compound at IC50 concentration, incubation 2 h
[3] = test system: HL60; test: In vitro cytotoxicity, IC50 by flow cytometry (Guava ViaCount); format: cell-based, human
Protocol: (§1) Human cancer cell line HeLa, HL60, A2780 was obtained from the HPA Culture Collections (Salisbury, UK). Cells (Jurkat, K562, U937, Hek293, Fibroblasts) were purchased from Russian Cell Culture Collection (Institute of Cytology of the Russian Academy of Sciences, […], Russia) and cultured according to standard protocols and sterile technique. […] Cells were maintained in RPMI 1640 (Jurkat, K562, U937, HL60) (Gibco, Billings, MT, USA) supplemented with […], 10% FBS (Sigma) and 100 units/mL penicillin–streptomycin (Sigma). All types of cells were grown in an atmosphere of 5% CO2 at 37 °C. The cells were subcultured at 2–3 days intervals. Cells were then seeded in 24-well plates at 5 × 10^4 cells per well and incubated overnight. Jurkat, K562, U937, HL60 cells were subcultured at 2-day intervals with a seeding density of 1 × 10^5 cells per 24-well plates in RPMI with 10% FBS.
(§2) The antitumor activity of the synthesized ionic compounds was initially assessed in vitro on Jurkat, K562, U937, HL60, HEK293, A2780 cell lines, including the determination of IC50 by flow cytometry involving Guava ViaCount (Millipore) reagent kits.

[4] = test system: A2780; test: as above; format: cell-based, human
Protocol: as §1, §2

[5] = test system: K562; test: as above; format: cell-based
Protocol: as §1, §2

[6] = test system: HEK293; test: as above; format: cell-based; conditions: conditionally normal
Protocol: as §1, §2

[7] = test system: Jurkat; test: as above; format: cell-based; conditions: Jurkat cells
Protocol: as §1, §2

[8] = test system: U937; test: as above; format: cell-based
Protocol: as §1, §2

[9] = test system: Jurkat cells; test: Apoptosis/necrosis induction (Annexin V Alexa Fluor488, 7AAD staining); format: cell-based; conditions: compound at IC50 concentration, incubation 2 h
Source text: Multiparametric evaluation of marker molecules, along with the detection of damage to the mitochondrial membrane, makes it possible to clearly determine the type of cell death. The method of cell staining with three different dyes (Annexin V Alexa Fluor488, 7AAD and MitoSense Red) provides simultaneous specification of various aspects of the state of the cell membrane, the state of DNA and the viability of mitochondria; together, it is a reliable sign of intrinsic and mitochondrial apoptosis pathway. Normal cells with intact mitochondrial membranes have high MitoSense Red fluorescence, while cells with decoupled oxidation and phosphorylation have much lower fluorescence. […]
Figure 1 The ratio of the level of mito-damage and the level of apoptosis in Jurkat cells of ionic compounds based on ursolic, oleanolic and betulinic acids.

[10] = test system: Chk2; test: Luminex xMAP DNA Damage/Genotoxicity panel, phosphorylated Chk2; format: cell-based; conditions: Jurkat cells; 12a 0.006 µM, 13d 0.004 µM per 100,000 cells; 6 and 12 h
Source text: [Worded in the source for another target; used here, by the source, with some conditions changed.] (§3) The determination of proteins in a cell by Luminex xMAP technology is characterized by the presence of multiplex multiparametric analysis with the simultaneous use of a multiplex of antibodies with a fluorescent label and magnetic particles, thereby resulting in an increase in the sensitivity of the technique and expansion of the dynamic range, as well as an increase in detection accuracy. Luminex XMAP technology provides a simultaneous analysis of a sufficient number of different proteins in various types of biological fluids (plasma, serum, cerebrospinal fluid, follicular fluid, tissue lysate, etc.) and in cell supernatants. Consequently, multiplexing saves time/costs and ensures the same conditions for the measurements, which is essential for significance and statistical processing.
(§4) Magnetic microspheres (stained inside with two fluorescent dyes) in combination with monoclonal antibodies against the analyzed analytes (the main intracellular kinases in this case) are incubated with the samples and standards; then, the samples/standards are incubated with biotinylated monoclonal antibodies against the analyzed analytes and, finally, with a solution of streptavidin–phycoerythrin. The Luminex technology identifies the different proteins present in each well and converts the mean fluorescence intensity (MFI) of each measured cytokine to pg/mL using software and standard curves. This approach is successfully applied in fundamental and clinical research. In this work, we analyzed various protein analytes that make up the phosphorylated and non-phosphorylated fractions of the main kinases in the signaling pathways: CREB, JNK, NFkB, p38, ERK1/2, Akt, p70S6K, STAT3, STAT5 proteins in six samples of lysates of Jurkat tumor cells by Luminex technology (MILLIPLEX® MAP 9-Plex Multi-Pathway 9-plex Magnetic Bead Kit).

[11] = test system: Chk1; test: Luminex xMAP DNA Damage/Genotoxicity panel, phosphorylated Chk1; format: cell-based; conditions: Jurkat cells; 12a 0.006 µM, 13d 0.004 µM per 100,000 cells; 6 and 12 h
Source text: [Worded in the source for another target; used here, by the source, with some conditions changed.] as §3, §4

[12] = test system: ATR kinase; test: Luminex xMAP DNA Damage/Genotoxicity panel, ATR kinase content; format: cell-based; conditions: Jurkat cells; 12a 0.006 µM, 13d 0.004 µM per 100,000 cells; 6 and 12 h
[13] = test system: γH2AX; test: Luminex xMAP DNA Damage/Genotoxicity panel, phosphorylated γH2AX; format: cell-based; conditions: Jurkat cells; first six hours of incubation
Source text: as §3, with “processing. Simultaneous measurement of cytokines by bead multiplex analysis has certain similarities with ELISA, in particular the use of antibodies, but has a fundamental difference in using magnetic fluorescent beads coupled to antikinase monoclonal antibodies.” for “processing.”
as §4
Phosphorylation of histone H2AX at serine 139 (γH2AX) is an early stage in the cellular response to DNA damage, when the damage brings about formation of a double-strand break (DSB). γH2AX foci, considered as markers of DNA double-strand breaks, are easily detected by immunofluorescence microscopy and flow cytometry. The two main signaling pathways ATM/Chk2 and ATR/Chk1 respond to DNA damage and both lead to H2AX phosphorylation, but the ATR/Chk1 pathway causes γH2AX formation to a much lesser extent. The role of γH2AX in DNA repair is also discussed.
Incubation time with the test compounds was 6 and 12 h. p < 0.001 (***).

## C[n+]1ccn(CCCCCCOC(=O)[C@]23CCC(C)(C)CC2C2=CCC4[C@@]5(C)CC[C@H](O)C(C)(C)C5CC[C@@]4(C)[C@]2(C)CC3)c1.O=C([O-])c1ccccc1O (stereo partly drawn) [13f, 1-(6-{[(3β)-3-Hydroxyolean-12-en-28-oyl]oxy}hexyl)-3-methylimidazolium Salicylate]
[1]
  Freq Sub-G1 (hypodiploid cell population): 9.83%
[2]
  Mito-Damage (%): 49.43%
[3]; HL60 cells
  IC50: 0.003 ± 0.001 µM
[4]; A2780 cells
  IC50: 0.018 ± 0.002 µM
[5]; K562 cells
  IC50: 0.013 ± 0.001 µM
[6]; HEK293 cells
  IC50: 0.037 ± 0.003 µM
[7]
  IC50: 0.008 ± 0.001 µM
[8]; U937 cells
  IC50: 0.011 ± 0.001 µM
[9]
  Apoptosis (%) Early: 0.17%
  Apoptosis (%) Late: 35.95%
  Apoptosis (%) Necrosis: 11.07%

## N.N.[Cl][Pt][Cl] [cisplatin, reference compound]
[1]
  Freq Sub-G1 (hypodiploid cell population): 32.27%

## CC(=O)O[C@H]1CC[C@@]2(C)C(CC[C@]3(C)C2CC=C2C4CC(C)(C)CC[C@]4(C(=O)OCCCCCCOC(=O)c4cncn4C)CC[C@]23C)C1(C)C (stereo partly drawn) [compound 4, 6-{[(1-Methyl-1H-imidazol-5-yl)carbonyl]oxy}hexyl (3β)-3-(acetyloxy)olean-12-en-28-oate]
[3]; Homo sapiens, HL-60, HL60 cells
  IC50: > 4 µM
[4]; Homo sapiens, A2780, A2780 cells
  IC50: > 4 µM
[5]; Homo sapiens, K562, K562 cells
  IC50: > 4 µM
[6]; Homo sapiens, HEK293, HEK293 cells
  IC50: > 4 µM
[7]; Homo sapiens, Jurkat
  IC50: > 4 µM
[8]; Homo sapiens, U-937, U937 cells
  IC50: > 4 µM
other
  melting point: 123 to 125 °C

## CO[C@H]1C[C@@H]2CC[C@@H](C)[C@@](O)(O2)C(=O)C(=O)N2CCCC[C@H]2C(=O)O[C@H]([C@H](C)C[C@@H]2CC[C@@H](O)[C@H](OC)C2)CC(=O)[C@H](C)/C=C(\C)[C@@H](O)[C@@H](OC)C(=O)[C@H](C)C[C@H](C)/C=C/C=C/C=C/1C [rapamycin, reference compound]
[10]
  content of phosphorylated checkpoint kinase Chk2: significantly decreases
[11]
  content of phosphorylated checkpoint kinase Chk1: significantly decreases
[12]
  level of ATR kinase: elevated levels
[13]
  increase in the phosphorylated γH2AX histone fraction: ~9000 times

## CN[C@@H]1C[C@H]2O[C@@](C)([C@@H]1OC)n1c3ccccc3c3c4c(c5c6ccccc6n2c5c31)C(=O)NC4 [staurosporine]
[10]
  content of phosphorylated checkpoint kinase Chk2: significantly decreases
[11]
  content of phosphorylated checkpoint kinase Chk1: significantly decreases
[13]
  increase in the phosphorylated γH2AX histone fraction: ~9000 times

## CC(C)[C@@H]1NC(=O)[C@H](C)OC(=O)[C@@H](C(C)C)NC(=O)[C@@H](C(C)C)OC(=O)[C@H](C(C)C)NC(=O)[C@H](C)OC(=O)[C@@H](C(C)C)NC(=O)[C@@H](C(C)C)OC(=O)[C@H](C(C)C)NC(=O)[C@H](C)OC(=O)[C@@H](C(C)C)NC(=O)[C@@H](C(C)C)OC1=O [valinomycin]
[10]
  content of phosphorylated checkpoint kinase Chk2: significantly decreases
[11]
  content of phosphorylated checkpoint kinase Chk1: significantly decreases
[12]
  level of ATR kinase: elevated levels
